Square brackets hold non-standard residues; d marks the D form. Peptide text beside a SMILES is read from it. dNMeW = CN[C@H](Cc1c[nH]c2ccccc12)C(=O)O; NMeF = CN[C@@H](Cc1ccccc1)C(=O)O; NMeK = CN[C@@H](CCCCN)C(=O)O

This note sets out measurements from ChEMBL document CHEMBL4219041, “Improving oral bioavailability of cyclic peptides by N-methylation” (Bioorg Med Chem, 2018).

Data set [1] can be described thus: Efflux ratio of apparent permeability from basolateral to apical over apical to basolateral side in human Caco2 cells. The settings on record: Caco-2. Type of data set: ADME, cell-based. For orientation: Caco-2 monolayers are a common model of the intestinal barrier.
Data set [2] is described as follows: Oral bioavailability in rat at 10 mg/kg. Type of data set: ADME, organism-based. The settings on record: in vivo.

What is called efflux ratio is the permeability from basolateral to apical divided by that in the opposite direction, in the common usage. With `C[C@@H]1NC(=O)[C@H](C)NC(=O)[C@@H](C)N(C)C(=O)[C@H](C)N(C)C(=O)[C@H](C)NC(=O)[C@H](C)NC1=O`, the efflux ratio in data set [1] worked out at 2.05.

`C[C@@H]1NC(=O)[C@H](C)NC(=O)[C@@H](C)N(C)C(=O)[C@H](C)NC(=O)[C@H](C)N(C)C(=O)[C@H](C)NC1=O`: the efflux ratio in data set [1] was found to be 1.93. On the same count and under the same terms, in the case of `C[C@@H]1NC(=O)[C@H](C)N(C)C(=O)[C@H](C)N(C)C(=O)[C@H](C)NC(=O)[C@H](C)N(C)C(=O)[C@@H](C)N(C)C1=O` it was 1.97; in that of `C[C@@H]1NC(=O)[C@H](C)N(C)C(=O)[C@H](C)N(C)C(=O)[C@H](C)NC(=O)[C@@H](C)N(C)C(=O)[C@H](C)N(C)C1=O`, 0.08.

As a reminder, the bioavailability is dose-corrected exposure relative to a reference, in per cent. Read a high bioavailability as much systemic uptake. In data set [2], `C[C@@H](O)[C@@H]1NC(=O)[C@H](CCCCN)N(C)C(=O)[C@@H](Cc2c[nH]c3ccccc23)N(C)C(=O)[C@H](Cc2ccccc2)NC(=O)[C@@H]2CCCN2C(=O)[C@H](Cc2ccccc2)N(C)C1=O` (cyclo(F[dNMeW][NMeK]T[NMeF]P)) displayed a bioavailability of 10%.
